Assay results from patent US9138449B2, “Medicinal composition for liver diseases” (Shanghai Sundise Chinese Medicine Technology Development …, priority 2006, dated 2015).
Marks after values point to notes of the source that are not given here.

Assays:
[1] = tested on: hepatic fibrosis in rats induced by dimethylnitrosamine (DMN); assay: Treatment effect on hepatic fibrosis in rats induced by dimethylnitrosamine (DMN); assay type: in vivo, rat
Procedure: Pharmacological model: The hepatic fibrosis model was induced by intraperitoneal injections of dimethylnitrosamine at a dosage of […] rat wt, the injection was given on the first consecutive 3 days of each week over a period of 4 weeks, once per day.
Groups and drug administration: After establishing the model, the model rats were divided into model control, Fuzheng Huayu Prep I, Fuzheng Huayu Prep II, and (N-Acetylcysteine, NAC) groups, also normal rats was set as the normal control, with total 5 groups. The model rats in Fuzheng Huayu Prep I and II took orally Fuzheng Huayu decoction at the dosage of 4.6 g/kg rat wt from the beginning of the 5th week to end of the 8th week, one time per day for 4 weeks, NAC group received NAC at the dosage of 100 mg/kg wt, and controls took the same volume of saline. (body weight equivalent to 10 times of 65 kg adult dosage).

[2] = tested on: liver fibrosis model in rat induced by CCl4; assay: Prophylaxis action on liver fibrosis in rats induced by CCl4 with high lipid, low protein food; assay type: in vivo
Procedure: Pharmacological model: The liver fibrosis model in rat was induced by hypodermical injection of CCl4 and fed with the food containing high lipid and low protein. 100 wt % CCl4 was used at the first injection with a dosage of 1 ml/kg wt rat, then 40 wt % CCl4 in olive oil with a dosage of 3 ml/kg wt. was applied, twice per week and lasting for 2 weeks. During the first 2 weeks of intoxication, the rats were fed with the food containing 79.5 wt % maizena, 20 wt % grease and 0.5 wt % cholesterol, then with the pure maize food for later 4 weeks.
All dosages were 10 times human dosage with 65 kg by the same body weight.

[3] = DMN fibrotic rats, 4 weeks treatment, x ± s
[4] = Preps 4.6 g/kg or NAC 100 mg/kg once daily, weeks 5-8
[5] = CCl4 fibrotic rats, 6 weeks dosing, x ± s
[6] = Preps 4.6 g/kg or VitE 50 mg/kg orally once daily for 6 weeks

CC(=O)N[C@@H](CS)C(=O)O [NAC, N-Acetylcysteine]
Hepatic Hyp content [1, 3]: 482.1 ± 124.4 μg/g liver
Hepatic SOD activity [1, 3]: 252.2 ± 47.6^# 10^3 × NU/g protein
Serum ALT [1, 3]: 67.7 ± 36.1 U/L
Serum AST [1, 3]: 76.5 ± 25.5 U/L
Serum Alb [1, 3]: 30.9 ± 5.5 g/L
Serum T. BIL [1, 3]: 18.8 ± 2.8 µmol/L
Serum T. Protein [1, 3]: 60.4 ± 11.2 g/L
Liver fibrotic stage S0 (number of rats) [1, 4]: 0
Liver fibrotic stage S1 (number of rats) [1, 4]: 1
Liver fibrotic stage S2 (number of rats) [1, 4]: 5
Liver fibrotic stage S3 (number of rats) [1, 4]: 4
Liver fibrotic stage S4 (number of rats) [1, 4]: 2
R (Ridit examination of liver fibrotic stages) [1, 4]: 0.415^#

Vitamin E [Vit E]
Liver tissue pathological examination (hepatic inflammation, collagen deposition; HE and Sirius red staining), in words ([2]; CCl4 fibrotic rats, vs. model control): much better conditions of hepatic inflammation compared to the controls
Hepatic Hyp [2, 5]: 296.2 ± 49.8 μg/g liver
Hepatic MDA [2, 5]: 4.5 ± 1.3 μmol/g protien
Hepatic SOD [2, 5]: 1062 ± 83 NU/g liver
Hepatic Triglyceride [2, 5]: 12.6 ± 3.7 μg/g liver
Serum ALT [2, 5]: 106.4 ± 45.9 U/L
Serum AST [2, 5]: 127.7 ± 37.2 U/L
Serum T. BIL [2, 5]: 14.1 ± 3.3 µmol/L
Serum T. Protein [2, 5]: 55.8 ± 4.2 g/L
Liver fibrotic stage S0 (number of rats) [2, 6]: 0
Liver fibrotic stage S1 (number of rats) [2, 6]: 6
Liver fibrotic stage S2 (number of rats) [2, 6]: 6
Liver fibrotic stage S3 (number of rats) [2, 6]: 2
Liver fibrotic stage S4 (number of rats) [2, 6]: 0
R (Ridit examination of liver fibrotic stages) [2, 6]: 0.506^#
